The record followed here is publication PMC4979481, “Functional characterization of the ectopically expressed olfactory receptor 2AT4 in human myelogenous leukemia” (Cell Death Discovery, 2016).

Molecules are shown by their SMILES.

In this experiment the target is T1, OR2AT4 (olfactory receptor 2AT4) (Homo sapiens, UniProt A6NND4).
T1 sequence (A6NND4 1-320): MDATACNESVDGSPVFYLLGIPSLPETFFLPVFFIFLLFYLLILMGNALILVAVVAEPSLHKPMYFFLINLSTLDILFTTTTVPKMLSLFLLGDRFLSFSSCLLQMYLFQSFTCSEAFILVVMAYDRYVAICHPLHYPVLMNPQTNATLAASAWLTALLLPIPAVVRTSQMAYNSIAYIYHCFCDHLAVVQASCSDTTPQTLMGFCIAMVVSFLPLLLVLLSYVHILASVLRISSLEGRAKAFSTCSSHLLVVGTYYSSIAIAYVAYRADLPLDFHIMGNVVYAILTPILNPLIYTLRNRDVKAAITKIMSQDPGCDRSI
Briefly: calcium imaging dose-response in K562 cells (endogenous receptor), blocked by antagonist Phenirat. The experiment is classed as cell-based.

A word on the EC50: it is the concentration that produces a half-maximal response.

As for `CC1=CCC(CCC(C)C(C)O)C1(C)C` (stereo not shown) [Sandalore], the EC50 is 265 µM.
